Experimental data as given in patent US6207393A, “Inhibition of intracellular signal transduction by 14-3-3-binding peptides” (Washington University, priority 1999, dated 2001).
“And” between values parts separate entries of the source, which are not always exact repeats. Equal entries are not always repeated. Where a SMILES comes first, the peptide text is derived from it. [ ]: non-standard residue; d: D form. pS = N[C@@H](COP(=O)(O)O)C(=O)O

What was measured:
14-3-3 zeta [1] = target: T1, 14-3-3 zeta (Homo sapiens, UniProt P63104); experiment: Displacement of 32P-labeled phosphorylated Raf-259 peptide from immobilized GST/14-3-3 zeta (scintigraphy); assay type: binding; settings: non-radiolabeled competitors
T1 construct: made in house; host or cells: E. coli DH5α (vector pGEX-KT)
T1 sequence (P63104 1-245): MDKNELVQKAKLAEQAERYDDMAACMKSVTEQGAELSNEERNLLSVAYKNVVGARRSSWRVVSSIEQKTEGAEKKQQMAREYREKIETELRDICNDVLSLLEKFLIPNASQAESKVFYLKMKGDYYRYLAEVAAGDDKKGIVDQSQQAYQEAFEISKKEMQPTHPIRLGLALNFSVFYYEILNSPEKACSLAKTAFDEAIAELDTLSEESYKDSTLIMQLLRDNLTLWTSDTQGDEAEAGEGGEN
Method: The 14-3-3 protein isoforms for use in binding studies with the above peptides were prepared as proteins fused with glutathione-S-transferase (GST) and immobilized to glutathione agarose beads. GST/14-3-3 fusion proteins were made by generating BamHI and EcoRI restriction endonuclease sites (underlined) at the 5' and 3' ends respectively of the 14-3-3 cDNAs by polymerase chain reaction (PCR) using the following isoform sequence specific pairs of primers: 14-3-3 beta, […] (SEQ ID NO: 11), […] (SEQ ID NO: 12); 14-3-3 eta […] (SEQ ID NO: 13), […] (SEQ ID NO: 14); 14-3-3 tau […] (SEQ ID NO: 15), […] (SEQ ID NO: 16); 14-3-3 zeta […] (SEQ ID NO: 17), […] (SEQ ID NO: 18). The cDNA products were digested with BamHI and EcoRI, subcloned into the vector pGEX-KT (Guan and Dixon, Anal Biochem 192: 262-7, 1991 which is incorporated by reference). The vector was used to transform the DH5α strain of E. Coli. GST-14-3-3 fusion protein expression in log-growth phase bacterial cultures was accomplished by induction with 100 μM isopropyl β-D-thiogalactopyranoside (IPTG; Gold Biotechnology, St. Louis) for 4 hours. Cells were disrupted by sonication and lysates, containing 1% Triton X-100, were incubated with glutathione agarose beads (Sigma, St. Louis) at 4° C. overnight. Fusion proteins were eluted by incubation with 10 mM reduced glutathione (Sigma, St. Louis) in phosphate buffered saline for 1 hour at room temperature, dialyzed in phosphate buffered saline and quantitated by Coomassie staining SDS polyacrylamine gels compared against bovine serum albumin standards.
The Raf-259 peptide (SEQ ID NO: 4) was phosphorylated in vitro using protein kinase A (PKA) and [^32 P]-γ-ATP following the manufacturers instruction (PKA, New England Biolabs) with 20 μCi of [^32 P]-γ-ATP (NEN-Dupont, 6000 Ci/mmol). The efficiency of phosphorylation was calculated to be between 7 and 12% based upon the specific activity of the labelled peptide.
The labeled peptide was then incubated with immobilized 14-3-3 zeta fusion protein and binding of the labelled peptide was measured. […] Binding was also sequence specific. […]

14-3-3 beta = target: T2, 14-3-3 beta (Homo sapiens, UniProt P31946); experiment: SPR competitive inhibition of 14-3-3 beta binding to phosphorylated Raf-259 peptide; settings: isoform beta
T2 construct: made in house; host or cells: E. coli DH5α (vector pGEX-KT)
T2 sequence (P31946 1-246): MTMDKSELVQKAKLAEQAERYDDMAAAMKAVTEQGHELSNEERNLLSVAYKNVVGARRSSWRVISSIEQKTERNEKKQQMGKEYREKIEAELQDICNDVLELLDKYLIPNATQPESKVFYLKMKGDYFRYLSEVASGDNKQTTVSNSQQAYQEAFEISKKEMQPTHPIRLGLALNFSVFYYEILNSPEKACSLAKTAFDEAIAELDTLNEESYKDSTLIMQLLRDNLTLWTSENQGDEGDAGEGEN
Method: (§1) The ability of each peptide to inhibit binding of 14-3-3 zeta to the phosphorylated peptide was then tested in a range of concentrations between 1 and 50 μM. 14-3-3 zeta was prepared according to the methods in Example 1 and binding affinities and specificities were determined using the peptides in Table 2. The 14-3-3 zeta fusion proteins (0.5-1.0 μM) were pre-incubated with a given peptide at concentrations between 1 μM and 50 μM. 14-3-3 zeta was then infused across a sensor chip surface which had been previously coupled with the phosphorylated Raf-259 peptide (SEQ ID NO: 4). IC50 values were determined by plotting the concentration of competitor peptide required to achieve a 50% reduction in equilibrium binding.
(§2) There are seven known isoforms of 14-3-3 which form homo- and heterodimers in vivo. If different isoforms of 14-3-3 could bind to proteins with distinct specificities, heterodimeric forms of 14-3-3 might function as modular linker proteins, bringing together different proteins into a single complex. We were, therefore, interested in determining whether different 14-3-3 isoforms recognize phosphoserine in a sequence specific fashion. This hypothesis was tested by expressing and purifying three other 14-3-3 isoforms, eta, beta and tau, and measuring their affinity towards the panel of phosphorylated peptides generated above. Using the Surface Plasmon Resonance method, the "on" and "off" rates for 14-3-3 binding to the phosphorylated Raf-259 peptide were calculated (Table 6).
(§3) Competitive inhibition with the mutated phosphorylated Raf-1 peptides was used to determine whether their specificities were similar (Table 7). In each case, the calculated IC50 s were very similar to those calculated for 14-3-3 zeta.

14-3-3 tau = target: T3, 14-3-3 tau (Homo sapiens, UniProt P27348); experiment: SPR competitive inhibition of 14-3-3 tau binding to phosphorylated Raf-259 peptide; settings: isoform tau
T3 construct: made in house; host or cells: E. coli DH5α (vector pGEX-KT)
T3 sequence (P27348 1-245): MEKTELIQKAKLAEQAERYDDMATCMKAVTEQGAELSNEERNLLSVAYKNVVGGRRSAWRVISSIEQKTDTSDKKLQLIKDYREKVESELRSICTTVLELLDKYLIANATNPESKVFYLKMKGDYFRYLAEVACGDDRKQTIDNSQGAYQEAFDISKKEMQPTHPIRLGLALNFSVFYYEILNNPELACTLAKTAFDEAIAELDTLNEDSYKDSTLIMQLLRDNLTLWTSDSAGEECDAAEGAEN
Method: as §1, §2, §3

14-3-3 protein = target: T4, 14-3-3 protein (Homo sapiens, UniProt P63104); experiment: Degenerate peptide pools tested as competitive inhibitors of 14-3-3 binding; settings: competitor peptide 10 μM; no peptide = 100%
T4 sequence (P63104 1-245): T1 sequence (P63104 1-245)
Method: A series of degenerate peptides based upon phosphoserine Raf-621 peptide (SEQ ID NO: 10) were synthesized to confirm that the arginine in the -3 position, the serine in the -2 position and the proline in the +2 position were the critical motif residues (Table 5). Six pools of peptides were synthesized with all twenty amino acids placed in positions -5, -3, -2, -1, +1 and +2 respectively. Each pool of twenty peptides was tested as competitive inhibitors for binding. We reasoned that if a particular position is not critical for binding, the pool of twenty peptides should compete as well as wild-type peptide for binding. On the other hand, if a particular amino acid is required at a particular position, only a small fraction of the pool will be able to compete for binding, thus increasing (up to 20 fold) the concentration of peptide needed to inhibit binding.

14-3-3 eta = target: T5, 14-3-3 eta (Homo sapiens, UniProt Q04917); experiment: SPR competitive inhibition of 14-3-3 eta binding to phosphorylated Raf-259 peptide; settings: isoform eta
T5 construct: made in house; host or cells: E. coli DH5α (vector pGEX-KT)
T5 sequence (Q04917 1-246): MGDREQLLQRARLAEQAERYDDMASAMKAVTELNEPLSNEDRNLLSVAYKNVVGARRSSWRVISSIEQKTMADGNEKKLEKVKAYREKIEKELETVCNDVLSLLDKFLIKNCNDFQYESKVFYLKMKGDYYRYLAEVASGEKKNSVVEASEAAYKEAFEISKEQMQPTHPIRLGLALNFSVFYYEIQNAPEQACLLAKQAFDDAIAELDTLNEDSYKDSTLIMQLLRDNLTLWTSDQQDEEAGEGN
Method: as §1, §2, §3

14-3-3 zeta [2] = target: T1, 14-3-3 zeta; experiment: SPR competitive inhibition of 14-3-3 zeta binding to chip-coupled phosphorylated Raf-259 peptide; settings: 14-3-3 zeta 0.5-1.0 μM; competitor 1-50 μM; relative affinity only
Method: as §1

SMILES: N[C@@H](COP(=O)(O)O)C(=O)O [free phosphoserine, phosphoserine]
- displacement of bound labeled phosphorylated peptide from 14-3-3 zeta (14-3-3 zeta [1]): Neither

SMILES: CC[C@H](C)[C@H](NC(=O)[C@H](CCCCN)NC(=O)[C@@H]1CCCN1C(=O)[C@@H](N)CC(C)C)C(=O)N[C@@H](CC(N)=O)C(=O)N[C@@H](CCCNC(=N)N)C(=O)N[C@@H](CO)C(=O)N[C@@H](C)C(=O)N[C@@H](COP(=O)(O)O)C(=O)N[C@@H](CCC(=O)O)C(=O)N1CCC[C@H]1C(=O)N[C@@H](CO)C(=O)N[C@@H](CC(C)C)C(=O)N[C@@H](Cc1c[nH]cn1)C(=O)N[C@@H](CCCNC(=N)N)C(=O)O [pS-Raf-621, Leu-Pro-Lys-Ile-Asn-Arg-Ser-Ala-Xaa-Glu-Pro-Ser-Leu-His-Arg] (H-LPKINRSA[pS]EPSLHR-OH)
- IC50 (14-3-3 beta): 2000 nM
- IC50 (14-3-3 tau): 2000 nM
- % BINDING @ 10 μM (14-3-3 protein): < 5%
- IC50 (14-3-3 eta): 3000 nM
- IC50 (14-3-3 zeta [2]): ~1000 nM and 1000 nM
